In data set [1] the test system is Puccinia recondita f. sp. Tritici. As to the kind of experiment: Fungicidal activity against Puccinia recondita f. sp. Tritici / wheat / leaf disc curative (brown rust). Format: in vivo. As to conditions: foliar, 24 h, 200 ppm in the applied formulation, wheat leaf segments cv. Kanzler, applied 1 day after inoculation, vs untreated control, read-out: disease control. The essentials:
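Spray application came one day after spore inoculation of Kanzler wheat leaf segments kept on agar. Conditions: 19° C, 75% relative humidity, dark before treatment and 12 h light/12 h dark after. Efficacy = % disease control compared with untreated, 6–8 days post-application.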

The subject of data set [2] is Glomerella lagenarium (Colletotrichum lagenarium). Put plainly: Fungicidal activity against Glomerella lagenarium (Colletotrichum lagenarium) liquid culture / cucumber / preventative (anthracnose). Format: cell-based. As to conditions: Colletotrichum orbiculare, 72 h; 20 ppm in the applied formulation; liquid culture (PDB), growth inhibition measured photometrically 3 to 4 days after application; vs untreated control; read-out: disease control. The method in brief: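 In liquid culture, cryo-stored conidia in potato dextrose broth were exposed to compound delivered from DMSO solution. Growth inhibition was measured photometrically after 3 to 4 days at 24° C.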

For data set [3], the system named is Puccinia recondita f. sp. Tritici. As to the kind of experiment: Fungicidal activity against Puccinia recondita f. sp. Tritici / wheat / leaf disc preventative (brown rust). Format: in vivo. As to conditions: foliar, 200 ppm in the applied formulation, wheat leaf segments cv. Kanzler, inoculated 1 day after application, vs untreated control, read-out: disease control. The essentials: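 Wheat leaf segments (cv. Kanzler) on water agar were sprayed with test compound (DMSO stock diluted in 0.025% Tween20/water), then spore-inoculated 1 day later. Incubation at 19° C., 75% rh, 12 h light/12 h dark; percent disease control versus untreated segments scored 7 to 9 days after application. Tested at 200 ppm.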

The next data set has as its system Phakopsora pachyrhizi. As to the kind of experiment: Fungicidal activity against Phakopsora pachyrhizi / soybean / leaf disc preventative (Asian soybean rust). Format: in vivo. As to conditions: foliar, 200 ppm in the applied formulation, soybean leaf disks, vs untreated control, read-out: disease control. The essentials: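 Soybean leaf discs on water agar sprayed with compound diluted in water, then inoculated with spores on the lower surface one day later. Kept 24-36 h dark, 20 °C, 75% rh, then 12 h light/12 h dark. Percent disease control versus untreated scored 12-14 days after application.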

The melting point is the temperature of the solid-liquid transition. `CON=CCNC(=O)c1ccc(-c2noc(C(F)(F)F)n2)cc1` [Compound 1.10, N-(2-methoxyimino-ethyl)-4-[5-(trifluoromethyl)-1,2,4-oxadiazol-3-yl]benzamide] came in with a melting point of 155 to 157 °C. In data set [1], the pest or weed control at 200 ppm is at least 80%. Also, the inhibition of growth at 20 ppm in data set [2] is at least 80%. In addition, in data set [3], the pest or weed control at 200 ppm is at least 80%. For the same compound, the pest or weed control at 200 ppm in the data set on Phakopsora pachyrhizi was at least 80%.

In turn, `CCON=C(C)CNC(=O)c1ccc(-c2noc(C(F)(F)F)n2)cc1F` [Compound 1.158, N-(2-ethoxyiminopropyl)-2-fluoro-4-[5-(trifluoromethyl)-1,2,4-oxadiazol-3-yl]benzamide] returned a melting point of 120 to 122 °C. For the same compound, the pest or weed control at 200 ppm in data set [1] was at least 80%. Also, the inhibition of growth at 20 ppm in data set [2] is at least 80%. In data set [3], the pest or weed control at 200 ppm is at least 80%. Besides, the pest or weed control at 200 ppm in the data set with Phakopsora pachyrhizi was at least 80%.

Regarding `CCON=CCCNC(=O)c1ccc(-c2noc(C(F)(F)F)n2)c(F)c1` [Compound 1.161, N-(3-ethoxyiminopropyl)-3-fluoro-4-[5-(trifluoromethyl)-1,2,4-oxadiazol-3-yl]benzamide], the melting point lay within 108 to 110 °C. For the same compound, in data set [1], the pest or weed control at 200 ppm is at least 80%. In addition, in data set [2], the inhibition of growth at 20 ppm was at least 80%. Further, in data set [3], the pest or weed control at 200 ppm is at least 80%. Besides, in the data set with Phakopsora pachyrhizi, the pest or weed control at 200 ppm is at least 80%.

In the case of `CCON=C(C)CNC(=O)c1ccc(-c2noc(C(F)(F)F)n2)cc1` [Compound 1.12, N-(2-ethoxyimino-propyl)-4-[5-(trifluoromethyl)-1,2,4-oxadiazol-3-yl]benzamide], the melting point lay in the range of 135 to 136 °C. Besides, in data set [1], the pest or weed control at 200 ppm was at least 80%. The inhibition of growth at 20 ppm in data set [2] is at least 80%. Also, in data set [3], the pest or weed control at 200 ppm was at least 80%. For the same compound, in the data set on Phakopsora pachyrhizi, the pest or weed control at 200 ppm was at least 80%.

The compound `O=C(NCC=NOCCF)c1ccc(-c2noc(C(F)(F)F)n2)cc1` [Compound 1.148, N-[2-(2-fluoroethoxyimino)ethyl]-4-[5-(trifluoromethyl)-1,2,4-oxadiazol-3-yl]benzamide] registered a melting point of 145 to 146 °C. Moreover, the pest or weed control at 200 ppm in data set [1] is at least 80%. In data set [2], the inhibition of growth at 20 ppm was at least 80%. Further, in data set [3], the pest or weed control at 200 ppm was at least 80%. For the same compound, the pest or weed control at 200 ppm in the data set on Phakopsora pachyrhizi is at least 80%.

For the compound `CON=C(C)CNC(=O)c1ccc(-c2noc(C(F)(F)F)n2)cc1F` [Compound 1.157, 2-fluoro-N-(2-methoxyimino-propyl)-4-[5-(trifluoromethyl)-1,2,4-oxadiazol-3-yl]benzamide], the melting point was in the range of 122 to 124 °C. For the same compound, the pest or weed control at 200 ppm in data set [1] is at least 80%. In addition, in data set [2], the inhibition of growth at 20 ppm is at least 80%. In addition, in data set [3], the pest or weed control at 200 ppm is at least 80%. Also, the pest or weed control at 200 ppm with Phakopsora pachyrhizi is at least 80%.

With `CO/N=C(/C)CNC(=O)c1ccc(-c2noc(C(F)(F)F)n2)cc1` [Compound 1.14, N-[(2Z)-2-methoxyimino-propyl]-4-[5-(trifluoromethyl)-1,2,4-oxadiazol-3-yl]benzamide], the melting point lay within 151 to 152 °C. Moreover, the pest or weed control at 200 ppm in data set [1] was at least 80%. Also, the inhibition of growth at 20 ppm in data set [2] was at least 80%. Further, the pest or weed control at 200 ppm in data set [3] was at least 80%. For the same compound, the pest or weed control at 200 ppm in the data set on Phakopsora pachyrhizi was at least 80%.

Take `CCON=CCCNC(=O)c1ccc(-c2noc(C(F)(F)F)n2)cc1` [Compound 1.153, N-(3-ethoxyiminopropyl)-4-[5-(trifluoromethyl)-1,2,4-oxadiazol-3-yl]benzamide]: the melting point was in the range of 132 to 136 °C. Moreover, in data set [1], the pest or weed control at 200 ppm is at least 80%. In data set [2], the inhibition of growth at 20 ppm is at least 80%. In addition, the pest or weed control at 200 ppm in data set [3] was at least 80%. Besides, the pest or weed control at 200 ppm in the data set with Phakopsora pachyrhizi is at least 80%.

The values are drawn from patent US11192867B2, “Microbiocidal oxadiazole derivatives” (SYNGENTA PARTICIPATIONS AG, priority 2016, dated 2021).
